Data taken from patent US12435060B2, “Acylamino bridged heterocyclic compound, and composition and application thereof” (BEIJING SCITECH-MQ PHARMACEUTICALS LIMITED, priority 2019, dated 2025).

system: HT29 cells; assay: Inhibition of cell necrosis (CCK8 method), induced programmed necrosis of HT29 cells; format: cell-based; conditions: Homo sapiens, HT-29; rescue from necrosis induced by TNF-α 20 ng/mL, AT-406 1 μM, Z-VAD-FMK 20 μM; 16-20 hours; CCK-8, OD 450 nm
Outline: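 Rescue from programmed necrosis was scored by CCK-8 absorbance at 450 nm after 16-20 h of TNF-α (20 ng/mL), AT-406 (1 μM) and Z-VAD-FMK (20 μM) at 37 °C, 5% CO2. HT29 cells had received compound 30 min earlier across nine 4-fold dilutions (top 25000 nM final). IC50 came from % inhibition relative to uninduced and induced-only wells.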

Row | Structure (SMILES) | IC50
1 | O=C(Nc1cc(-c2cc(OCC3CCOCC3)ccc2F)c(F)cn1)c1nnc(Cc2ccccc2F)[nH]1 [Example 327, N-(5-fluoro-4-(2-fluoro-5-((tetrahydro-2H-pyran-4-yl)methoxy)phenyl)pyridin-2-yl)-5-(2-fluorobenzyl)-4H-1,2,4-triazole-3-carboxamide] | ≤ 100 nM
2 | Cc1ccc(OCCCCC#N)cc1-c1ccnc(NC(=O)c2nnc(Cc3ccccc3)[nH]2)c1 [Example 91, 5-benzyl-N-(4-(5-(4-cyanobutoxy)-2-methylphenyl)pyridin-2-yl)-4H-1,2,4-triazole-3-carboxamide] | ≤ 100 nM
3 | O=C(Nc1cncc(-c2ccccc2Cl)c1)c1nnc(Cc2ccccc2)[nH]1 [Example 30, 5-benzyl-N-(5-(2-chlorophenyl)pyridin-3-yl)-4H-1,2,4-triazole-3-carboxamide] | > 10000 nM
4 | COCCOc1ccc(C(F)(F)F)c(-c2ccnc(NC(=O)c3nnc(CC4CCCCC4)[nH]3)c2)c1 [Example 282, 5-(cyclohexylmethyl)-N-(4-(5-(2-methoxyethoxy)-2-(trifluoromethyl)phenyl)pyridin-2-yl)-4H-1,2,4-triazole-3-carboxamide] | ≤ 100 nM
5 | O=C(Nc1cc(-c2cc(OCC3CCOCC3)ccc2C(F)(F)F)ccn1)c1nnc(CC2CCCCC2)[nH]1 [Example 304, 5-(cyclohexylmethyl)-N-(4-(5-((tetrahydro-2H-pyran-4-yl)methoxy)-2-(trifluoromethyl)phenyl)pyridin-2-yl)-4H-1,2,4-triazole-3-carboxamide] | ≤ 100 nM
6 | COc1cnc(C)cc1-c1ccnc(NC(=O)c2nnc(Cc3ccccc3)[nH]2)c1 [Example 61, 5-benzyl-N-(5′-methoxy-2′-methyl-[4,4′-bipyridin]-2-yl)-4H-1,2,4-triazole-3-carboxamide] | 1000 to 10000 nM
7 | Cc1ccc(OCCCC(C)(C)O)cc1-c1ccnc(NC(=O)c2nnc(CN3CCOCC3)[nH]2)c1 [Example 181, N-(4-(5-((4-hydroxy-4-methylpentyl)oxy)-2-methylphenyl)pyridin-2-yl)-5-(morpholinomethyl)-4H-1,2,4-triazole-3-carboxamide] | 1000 to 10000 nM
8 | CCC(O)(CC)CCCOc1ccc(C(F)(F)F)c(-c2ccnc(NC(=O)c3nnc(CC4CCCCC4)[nH]3)c2)c1 [Example 263, 5-(cyclohexylmethyl)-N-(4-(5-((4-ethyl-4-hydroxyhexyl)oxy)-2-(trifluoromethyl)phenyl)pyridin-2-yl)-4H-1,2,4-triazole-3-carboxamide] | ≤ 100 nM
9 | Cc1ccc(OCCCC(C)(C)O)cc1-c1cc(NC(=O)c2nnc(Cc3cccc(F)c3)[nH]2)ncn1 [Example 434, 5-(3-fluorobenzyl)-N-(6-(5-((4-hydroxy-4-methylpentyl)oxy)-2-methylphenyl)pyrimidin-4-yl)-4H-1,2,4-triazole-3-carboxamide] | ≤ 100 nM
10 | O=C(Nc1cc(-c2cc(OCC3CCOCC3)ccc2C(F)(F)F)ncn1)c1nnc(Cc2ccccc2F)[nH]1 [Example 455, 5-(2-fluorobenzyl)-N-(6-(5-((tetrahydro-2H-pyran-4-yl)methoxy)-2-(trifluoromethyl)phenyl)pyrimidin-4-yl)-4H-1,2,4-triazole-3-carboxamide] | ≤ 100 nM
11 | Cc1ccc(OCCC2CCOCC2)cc1-c1ccnc(NC(=O)c2nnc(CC3CCCCC3)[nH]2)c1 [Example 89, 5-(cyclohexylmethyl)-N-(4-(2-methyl-5-(2-(tetrahydro-2H-pyran-4-yl)ethoxy)phenyl)pyridin-2-yl)-4H-1,2,4-triazole-3-carboxamide] | ≤ 100 nM
12 | Cc1ccc(OCCCC(C)(C)O)cc1-c1ccnc(NC(=O)c2nnc(Cc3cccc(Cl)c3F)[nH]2)c1 [Example 491, 5-(3-chloro-2-fluorobenzyl)-N-(4-(5-((4-hydroxy-4-methylpentyl)oxy)-2-methylphenyl)pyridin-2-yl)-4H-1,2,4-triazole-3-carboxamide] | 100 to 1000 nM
13 | Cc1ccc(C(N)=O)cc1-c1ccnc(NC(=O)c2nnc(Cc3ccccc3)[nH]2)c1 [Example 158, 5-benzyl-N-(4-(5-carbamoyl-2-methylphenyl)pyridin-2-yl)-4H-1,2,4-triazole-3-carboxamide] | 1000 to 10000 nM
14 | COc1ccc(Cc2nnc(C(=O)Nc3cc(-c4cc(OCCCC(C)(C)O)ccc4C)ccn3)[nH]2)cc1 [Example 190, 5-(4-methoxybenzyl)-N-(4-(5-((4-hydroxy-4-methylpentyl)oxy)-2-methylphenyl)pyridin-2-yl)-4H-1,2,4-triazole-3-carboxamide] | 100 to 1000 nM
15 | Cc1cc(Cc2nnc(C(=O)Nc3cc(-c4cc(OCCCC(C)(C)O)ccc4C)ccn3)[nH]2)ccc1F [Example 208, 5-(4-fluoro-3-methylbenzyl)-N-(4-(5-((4-hydroxy-4-methylpentyl)oxy)-2-methylphenyl)pyridin-2-yl)-4H-1,2,4-triazole-3-carboxamide] | 100 to 1000 nM
16 | Cc1ncc(OCCOC(C)C)cc1-c1ccnc(NC(=O)c2nnc(Cc3ccccc3)[nH]2)c1 [Example 132, 5-benzyl-N-(5-(2-isopropoxyethoxy)-2-methyl-[3,4′-dipyridine]-2′-yl)-4H-1,2,4-triazole-3-carboxamide] | 100 to 1000 nM
17 | O=C(Nc1cc(-c2cc(OCCC3CCOCC3)ccc2Cl)ncn1)c1nnc(CC2CCCCC2)[nH]1 [Example 473, N-(6-(2-chloro-5-(2-(tetrahydro-2H-pyran-4-yl)ethoxy)phenyl)pyrimidin-4-yl)-5-(cyclohexylmethyl)-4H-1,2,4-triazole-3-carboxamide] | ≤ 100 nM
18 | Cc1cc(F)c(OCCCC(C)(C)O)cc1-c1ccnc(NC(=O)c2nnc(Cc3ccccc3)[nH]2)c1 [Example 237, 5-benzyl-N-(4-(4-fluoro-5-((4-hydroxy-4-methylpentyl)oxy)-2-methylphenyl)pyridin-2-yl)-4H-1,2,4-triazole-3-carboxamide] | ≤ 100 nM
19 | CC(C)(O)CCCCOc1ccc(Cl)c(-c2ccnc(NC(=O)c3nnc(CC4CCCC4)[nH]3)c2)c1 [Example 369, N-(4-(2-chloro-5-((5-hydroxyl-5-methylhexyl)oxy)phenyl)pyridin-2-yl)-5-(cyclopentylmethyl)-4H-1,2,4-triazole-3-carboxamide] | ≤ 100 nM
20 | CC(C)OCCOc1ccc(Cl)c(-c2ccnc(NC(=O)c3nnc(CC4CCCCC4)[nH]3)c2)c1 [Example 390, N-(4-(2-chloro-5-(2-isopropoxyethoxy)phenyl)pyridin-2-yl)-5-(cyclohexylmethyl)-4H-1,2,4-triazole-3-carboxamide] | ≤ 100 nM
